The substances below were run on myasthenogenic antibody mAB 198 (assay: Peptide microarray mimotope screen, binding of mAB 198 to linear and cyclic peptides (fluorescence readout)). Conditions: cyclic mimotopes; binding of mAB 198, relative fluorescent signal after normalization against background.
Parameters: species or system rat
Source text: A custom peptide array of 30000 peptides was synthesized, with peptides of 7-19 amino acids in size; the peptides were based on substitution analyses of 176 AChR-MIR peptides with exchanges of each amino acid positions by each of the 20 common amino acids. Peptides were synthesized directly on a microarray, and screened with monoclonal antibody mAB 198 in order to obtain mimotopes with a binding strength which was improved over the human AChR alpha chain MIR-containing sequence […] (Tzartos et al, 1991; Luo et al, 2009) and over a previously published mimotope sequence ([…]), that was derived from Torpedo AchR with the help of antibody mAB 132A (Trinh et al, 2014). In particular, the wild type AChR-MIR sequence is known to structurally mimic to a certain extent the epitope recognized by myasthenogenic, unwanted and disease-causing antibodies from patients. The mimotope peptide library was designed by permutation of each single amino acid position of these two sequences with all natural amino acids in order to provide a maximally diversified collection of peptide variants. All peptides were synthesized in doublets as linear and as cyclic peptides. The aim was to obtain peptides (mimotopes) that mimic the natural epitope of myasthenogenic antibodies.
For the mimotope screen, the antibody mAB 198 (Absolute Antibody Ltd, UK) was used. This is a prototype antibody that was generated in rats using human AChR (Tzartos et al, 1983; Asher et al, 1993). […] Therefore, mAB198 was used as a surrogate probe to screen for new mimotopes that are capable of mimicking the corresponding AChR-MIR epitope or portions of the epitope.
As a readout, binding of mAB 198 to the 30000 linear and cyclic peptides was measured by fluorescence readout, and peptides were ranked according to their relative fluorescent signal after normalization against the background.
The top-ranked 100 linear and cyclic mimotopes are listed in Table 1 and Table 2 above, respectively.
In the case of 103 (LRVNPADYG) [compound 103], the “relative signal [%]” value is reported as 45.1%. With 136 (NPADYGR) [compound 136] the “relative signal [%]” value was 19.5%. 143 (RTNPADY) [compound 143] was tested, and the “relative signal [%]” value was 14.6%. 181 (VRLRGNPAD) [compound 181] was tested, and the “relative signal [%]” value was 9.9%. 196 (GSLRWNPADYT) [compound 196] was tested, and the “relative signal [%]” value was 8.7%. In the case of 157 (GSLRINPADYG) [compound 157], the “relative signal [%]” value is reported as 12.1%. With 189 (LRGNPAD) [compound 189] the “relative signal [%]” value was 9.1%. For 145 (RLYWNPADY) [compound 145], the “relative signal [%]” value was 13.7%. 169 (DVRLRYNPADY) [compound 169] was tested, and the “relative signal [%]” value was 10.5%. In the case of 154 (GSLRWNPADYP) [compound 154], the “relative signal [%]” value is reported as 12.4%. 149 (LRWNPADYP) [compound 149] was tested, and the “relative signal [%]” value was 13.1%. For 104 (WIDVRLRGNPA) [compound 104], the “relative signal [%]” value was 43.2%. In the case of 109 (DVRLRINPADY) [compound 109], the “relative signal [%]” value is reported as 31.4%. For 195 (SLRWNPADYHG) [compound 195], the “relative signal [%]” value was 8.7%. For 188 (SLYWNPADY) [compound 188], the “relative signal [%]” value was 9.4%. 120 (DVRLRGNPADY) [compound 120] was tested, and the “relative signal [%]” value was 25.0%. For 182 (RSRWNPADY) [compound 182], the “relative signal [%]” value was 9.8%. In the case of 118 (RLRINPADY) [compound 118], the “relative signal [%]” value is reported as 25.5%. In the case of 113 (LRRNPAD) [compound 113], the “relative signal [%]” value is reported as 28.2%. For 184 (RLLWNPADY) [compound 184], the “relative signal [%]” value was 9.7%. For 121 (WNPADYR) [compound 121], the “relative signal [%]” value was 24.9%. With 126 (RINPADYGG) [compound 126] the “relative signal [%]” value was 23.1%. In the case of 105 (RLNPADY) [compound 105], the “relative signal [%]” value is reported as 42.3%. With 122 (RLRYNPADY) [compound 122] the “relative signal [%]” value was 24.5%. For 148 (VRLRVNPADYG) [compound 148], the “relative signal [%]” value was 13.4%. In the case of 168 (VRLRWNPADYS) [compound 168], the “relative signal [%]” value is reported as 10.5%. For 147 (SLRFNPADY) [compound 147], the “relative signal [%]” value was 13.6%. In the case of 178 (VRLRINPADYG) [compound 178], the “relative signal [%]” value is reported as 10.0%. With 192 (WNPDDYR) [compound 192] the “relative signal [%]” value was 9.0%.

Same assay, conditions: linear mimotopes; binding of mAB 198, relative fluorescent signal after normalization against background
With 19 (WNPADYP) [compound 19] the “relative signal [%]” value was 20.5%. With 60 (WNPADYH) [compound 60] the “relative signal [%]” value was 9.4%. 1 (LRRNPAD) [compound 1] was tested, and the “relative signal [%]” value was 100.0%. 48 (CNLKFNP) [compound 48] was tested, and the “relative signal [%]” value was 11.0%. For 8 (GSLRYNP) [compound 8], the “relative signal [%]” value was 34.4%. With 7 (LRFNPAD) [compound 7] the “relative signal [%]” value was 37.1%. 91 (HSLRWNPAD) [compound 91] was tested, and the “relative signal [%]” value was 6.6%. For 37 (QWIDVRLRYNP) [compound 37], the “relative signal [%]” value was 13.4%. In the case of 2 (NPADYRG) [compound 2], the “relative signal [%]” value is reported as 71.4%. With 41 (RWNPADF) [compound 41] the “relative signal [%]” value was 12.6%. In the case of 51 (QWVDYNLKFNP) [compound 51], the “relative signal [%]” value is reported as 10.9%. In the case of 92 (NPADYGN) [compound 92], the “relative signal [%]” value is reported as 6.5%. With 73 (NPADYGI) [compound 73] the “relative signal [%]” value was 8.0%. With 21 (QWIDVRLRFNP) [compound 21] the “relative signal [%]” value was 20.1%. In the case of 39 (GGGSLRFNP) [compound 39], the “relative signal [%]” value is reported as 13.0%. 79 (HWNPADY) [compound 79] was tested, and the “relative signal [%]” value was 7.4%. With 30 (LRWNPADYH) [compound 30] the “relative signal [%]” value was 15.3%. With 72 (VRHRWNPAD) [compound 72] the “relative signal [%]” value was 8.1%. With 9 (LRVNPADYG) [compound 9] the “relative signal [%]” value was 31.6%. 78 (VDYNLKFNP) [compound 78] was tested, and the “relative signal [%]” value was 7.6%. In the case of 23 (NPADYGH) [compound 23], the “relative signal [%]” value is reported as 18.1%. 99 (ALRWNPADY) [compound 99] was tested, and the “relative signal [%]” value was 6.0%. For 86 (DVRLRWNPSDY) [compound 86], the “relative signal [%]” value was 6.8%.

Reference: patent US20230381328A1, “COMPOUND FOR THE PREVENTION OR TREATMENT OF MYASTHENIA GRAVIS” (ABLEVIA BIOTECH GMBH, priority 2020, published 2023)
